# Like-named read-outs stand apart in the source and are kept apart here.
# Key:
# [1] = CBD release from micelles through the HA hydrogel into simulated tear fluid, HPLC; assay type: physicochemical; details: after 12 h, simulated tear fluid as receiving medium
# Procedure: Next, an assay of CBD release from micelles through the HA hydrogel was carried out for 24 hours (the time that the gel will be in contact with the eye), using STF (simulated tear fluid: NaCl (0.68 g), NaHCO3 (0.22 g), CaCl2·2H2O (0.008 g), KCI (0.14 g), and type II water to a total volume of 100 ml, filtered through a 0.2 µm pore size filter) as the receiving medium in order to recapitulate as much as possible release in tears, and taking samples at 1, 3, 5 8, 12 and 24 h. High-Performance Liquid Chromatography (HPLC) was the analytical technique that allowed the separation, identification (by comparison with standard patterns) and quantification, using a reverse phase and mobile phase under certain conditions; a mixture of methanol and water (85:15). The other conditions are as follows; flow rate of 1.0 ml/min, injection volume 10 µl and wavelength at 220 nm. Under the conditions mentioned above, a good determination of the CBD can be carried out.
# [2] = test system: DBA/2J mice; assay: Intraocular pressure (IOP) by rebound tonometry in glaucoma model mice; assay type: in vivo
# Procedure: The study of the effects of topical ophthalmic CBD administration in micelles was carried out with outbred CD-1 mice and inbred DBA/2J mice. Male JAXTM DBA/2J mice homozygous for null mutations in Tyrplb and GpnmbR150X (-/-) were purchased from Charles River Laboratories (France). CD-1® IGS male mice were obtained from the animal facilities of Universidad Rey Juan Carlos, using 51 mice in total for the study . All animals were 4 weeks-old at the beginning of the study. They were maintained in a temperature (23 ± 1 °C) and humidity (50-55%) controlled room, under a 12 h light/dark cycle (lights off between 19:00 and 07.00 h). Animals had free access to standard laboratory rat chow (Harlan Laboratories Inc.) and tap water. Trained investigators blind to drug treatment conducted all the behavioural assays in groups of two. Experiments were performed between 8:00 and 11:00 a.m. in conscious animals. All animal procedures were designed and conducted in accordance with a protocol approved by the Ethical Committee of Universidad Rey Juan Carlos and by the Autonomous Region of Madrid (PROEX 187.3/21) and followed the guidelines for the Care and Use of Laboratory Animals of the European Union Directive (2010/63/EU) and Spanish regulations (Law 32/2007, RD 53/2013 and order ECC/566/2015). A total of 51 male mice were utilised in this study, as explained in section 2.2 below. The number of animals used and their suffering were minimised
# (§1) The research plan designed with the animal model is depicted in Fig. 3. It comprises three main phases: • An ageing phase, which includes an initial 3-month period of quarantine and acclimatisation and an additional 4.5-month period during which IOP (from month 3 until month 7,5), tear production (from month 5,5 until month 7,5) and tactile sensitivity (from month 4 to month 7,5) are monitored to obtain a baseline for such magnitudes. • A treatment phase, beginning when mice were 8 months old, where DBA/2J and CD-1 animals were randomly divided into two groups: treated and untreated. In this phase, treated mice receive CBD doses. The treatment phase comprises 3 periods: an acute period of 1 day, where, at time 0 of the phase, mice receive a CBD dose and are monitored for 24 hours; an initial chronic period of 18 days (days 2 to 19 of the treatment phase), where mice receive a daily CBD dose, and a second chronic period of other […] (days 21 to 37 of the treatment phase), where mice receive 2 daily CBD doses. From the end of the ageing phase to the end of the following phase, the wear-off phase, IOP, tear production and tactile sensitivity are monitored three times per week, following an alternative measuring system: on a same day, IOP was monitored in two groups, while tear production and tactile sensitivity were monitored in the other two groups, while, on the following measuring day, tear production and tactile sensitivity were monitored in the first two groups and IOP was monitored in the other two groups. • A wear-off phase, during which mice receive no treatment and IOP tear production and tactile sensitivity are monitored at 24, 48, 72 and 96 hours after the beginning of the phase, following the same alternative system of the treatment phase.
# CBD was administered as part of a micellar solution prepared as described in Example 1. In particular, in each dose, 5 µl of the micellar solution (with 5 mM CBD) was administered to one eye of each mice, while the other eye remained untreated or received only the vehicle, type II water. Treatment was always applied to the right eye. A different group of animals was treated during two weeks with the vehicle to ensure that it had no effect on IOP, corneal mechanical sensitivity or spontaneous production of tear.
# Measurements during the chronic treatment phase were always taken prior to daily administration. At each time point indicated in the chart of Fig. 3, rebound tonometry or von Frey test was performed in the same group of animals. […]
# [3] = test system: CD-1 mice; assay: Corneal mechanical sensitivity, von Frey test; assay type: in vivo; details: treated vs untreated
# Text: as §1, with “phase. […]” for “phase.”
# (§2) The study was carried out with the same DBA/2J animals used in the study of section 2.3, taking measures of tactile sensitivity in days different from those where IOP was measured, as scheduled in Fig. 3 and Table 3. […]
# (§3) Corneal mechanical sensitivity was measured following the von Frey test. […]
# [4] = test system: DBA/2J mice; assay: Corneal mechanical sensitivity, von Frey test; assay type: in vivo
# Text: as §1, with “phase. […]” for “phase.”
# as §2, §3
# [5] = test system: CD-1 mice; assay: Spontaneous production of tear, Schirmer test; assay type: in vivo; details: treated vs untreated
# Text: (§4) The research plan designed with the animal model is depicted in Fig. 3. It comprises three main phases: • An ageing phase, which includes an initial 3-month period of quarantine and acclimatisation and an additional 4.5-month period during which IOP (from month 3 until month 7,5), tear production (from month 5,5 until month 7,5) and tactile sensitivity (from month 4 to month 7,5) are monitored to obtain a baseline for such magnitudes. • A treatment phase, beginning when mice were 8 months old, where DBA/2J and CD-1 animals were randomly divided into two groups: treated and untreated. In this phase, treated mice receive CBD doses. The treatment phase comprises 3 periods: an acute period of 1 day, where, at time 0 of the phase, mice receive a CBD dose and are monitored for 24 hours; an initial chronic period of 18 days (days 2 to 19 of the treatment phase), where mice receive a daily CBD dose, and a second chronic period of other 18 days (days 21 to 37 of the treatment phase), where mice receive 2 daily CBD doses. […]
# (§5) Their analysis was carried out following the Von Schirmmer test, which consisted of an ophthalmologic examination used to measure tear production in the eyes by inserting a small special piece of absorbent paper in the corner of the eye to measure the amount of tears produced in a determined period of time. […] Then, the area of the wet test paper was measured (length x width).
# [6] = test system: DBA/2J mice; assay: Spontaneous production of tear, Schirmer test; assay type: in vivo; details: treated vs untreated
# Text: as §4, §5
# [7] = Body weight and welfare (actual severity of the procedure); assay type: in vivo, mice
# Procedure: In order to assess the actual severity of the treatment at the end of the procedure, the rates of mortality and morbidity were also recorded. Additionally, body weight measurements were […] during the study, as body weight is considered to be a sign of welfare.
# The values obtained are represented in Fig. 11. Additionally, the rate with regard to the value at month 7.8 (where CBD has not been administered yet) was calculated by one-way ANOVA followed by Dunnett's Multiple Comparisons test, a statistical test used to compare multiple treatment groups with a control group. Ia applicable when multiple treatment groups are present and it is desired it determine if any of them are statistically different from the control group, is often used when it is assumed that the variance is equal among all groups The results were over 10% decrease in body weight is normally considered as a severe effect of welfare, and such a level of decrease was not found in the present study for none of the mice.
# [8] = topical, cited from earlier work
# [9] = test system: wildtype mice; details: high dose, soya oil/water emulsion; cited from earlier work
# [10] = test system: CB1 knockout mice; details: high dose, soya oil/water emulsion; cited from earlier work
# [11] = Acute, hour 1 after single dose
# [12] = Chronic, day 12, one daily dose
# [13] = Chronic, day 16, one daily dose
# [14] = Chronic, day 21, two daily doses
# [15] = Chronic, day 26, two daily doses
# [16] = Chronic, day 30, two daily doses
# [17] = Chronic, day 35, two daily doses
# [18] = one week after finishing the treatment
structure (smiles),measurement,setting,value
"C=C(C)[C@@H]1CCC(C)=C[C@H]1c1c(O)cc(CCCCC)cc1O [CBD, cannabidiol]",CBD release,[1],higher than 90%
same,Δ[contra-(treated)-contra-(non-treated)],[2]; [11],+95%
same,Δ[ipsi-(treated)-ipsi-(non-treated)],[2]; [11],+69%
same,"IOP ratio tn/t0, ipsi- (treated)","[2]; Acute, hour 1 after single dose, treated ipsilateral eye, t0 = month 3.0",180%
same,"IOP ratio tn/t0, contra- (treated)","[2]; Acute, hour 1 after single dose, untreated contralateral eye, t0 = month 3.0",192%
same,Δ[contra-(treated)-contra-(non-treated)],"[2]; Chronic, day 3, one daily dose",+80%
same,Δ[ipsi-(treated)-ipsi-(non-treated)],"[2]; Chronic, day 3, one daily dose",+35%
same,"IOP ratio tn/t0, contra- (treated)","[2]; Chronic, day 3, one daily dose, contralateral eye",131%
same,"IOP ratio tn/t0, ipsi- (treated)","[2]; Chronic, day 3, one daily dose, ipsilateral eye",130%
same,Δ[contra-(treated)-contra-(non-treated)],"[2]; Chronic, day 7, one daily dose",+49%
same,Δ[ipsi-(treated)-ipsi-(non-treated)],"[2]; Chronic, day 7, one daily dose",-35%
same,"IOP ratio tn/t0, contra- (treated)","[2]; Chronic, day 7, one daily dose, contralateral eye",119%
same,"IOP ratio tn/t0, ipsi- (treated)","[2]; Chronic, day 7, one daily dose, ipsilateral eye",101%
same,Δ[contra-(treated)-contra-(non-treated)],[2]; [12],+30%
same,Δ[ipsi-(treated)-ipsi-(non-treated)],[2]; [12],-89%
same,"IOP ratio tn/t0, contra- (treated)","[2]; Chronic, day 12, one daily dose, contralateral eye",128%
same,"IOP ratio tn/t0, ipsi- (treated)","[2]; Chronic, day 12, one daily dose, ipsilateral eye",104%
same,Δ[contra-(treated)-contra-(non-treated)],[2]; [13],-85%
same,Δ[ipsi-(treated)-ipsi-(non-treated)],[2]; [13],-174%
same,"IOP ratio tn/t0, contra- (treated)","[2]; Chronic, day 16, one daily dose, contralateral eye",117%
same,"IOP ratio tn/t0, ipsi- (treated)","[2]; Chronic, day 16, one daily dose, ipsilateral eye",77%
same,Δ[contra-(treated)-contra-(non-treated)],[2]; [14],-60%
same,Δ[ipsi-(treated)-ipsi-(non-treated)],[2]; [14],-81%
same,"IOP ratio tn/t0, contra- (treated)","[2]; Chronic, day 21, two daily doses, contralateral eye",100%
same,"IOP ratio tn/t0, ipsi- (treated)","[2]; Chronic, day 21, two daily doses, ipsilateral eye",90%
same,Δ[contra-(treated)-contra-(non-treated)],[2]; [15],-137%
same,Δ[ipsi-(treated)-ipsi-(non-treated)],[2]; [15],-79%
same,"IOP ratio tn/t0, contra- (treated)","[2]; Chronic, day 26, two daily doses, contralateral eye",97%
same,"IOP ratio tn/t0, ipsi- (treated)","[2]; Chronic, day 26, two daily doses, ipsilateral eye",95%
same,Δ[contra-(treated)-contra-(non-treated)],[2]; [16],-119%
same,Δ[ipsi-(treated)-ipsi-(non-treated)],[2]; [16],-159%
same,"IOP ratio tn/t0, contra- (treated)","[2]; Chronic, day 30, two daily doses, contralateral eye",113%
same,"IOP ratio tn/t0, ipsi- (treated)","[2]; Chronic, day 30, two daily doses, ipsilateral eye",68%
same,Δ[contra-(treated)-contra-(non-treated)],[2]; [17],-88%
same,Δ[ipsi-(treated)-ipsi-(non-treated)],[2]; [17],-82%
same,"IOP ratio tn/t0, contra- (treated)","[2]; Chronic, day 35, two daily doses, contralateral eye",96%
same,"IOP ratio tn/t0, ipsi- (treated)","[2]; Chronic, day 35, two daily doses, ipsilateral eye",81%
same,Δ[contra-(treated)-contra-(non-treated)],"[2]; Wear-off, day 38, no treatment",-44%
same,Δ[ipsi-(treated)-ipsi-(non-treated)],"[2]; Wear-off, day 38, no treatment",-78%
same,"IOP ratio tn/t0, contra- (treated)","[2]; Wear-off, day 38, no treatment, contralateral eye",64%
same,"IOP ratio tn/t0, ipsi- (treated)","[2]; Wear-off, day 38, no treatment, ipsilateral eye",81%
same,Δ[contra-(treated)-contra-(non-treated)],"[2]; Wear-off, day 40, no treatment",-34%
same,Δ[ipsi-(treated)-ipsi-(non-treated)],"[2]; Wear-off, day 40, no treatment",-70%
same,"IOP ratio tn/t0, contra- (treated)","[2]; Wear-off, day 40, no treatment, contralateral eye",171%
same,"IOP ratio tn/t0, ipsi- (treated)","[2]; Wear-off, day 40, no treatment, ipsilateral eye",165%
same,IOP relative to the untreated group,[2]; acute administration (one dose),increased IOP
same,IOP difference relative to the untreated group,[2]; after giving two doses (daily),-80%
same,IOP compared with the untreated group,[2]; [18],still reduced
same,"IOP relative to the untreated group, late phase","[2]; repeated administration, 7 days on",decreased values
same,corneal mechanical sensitivity,[3],no significant effect
same,corneal mechanical sensitivity relative to the untreated group,[4]; acute administration,decreased mechanical sensitivity
same,corneal mechanical sensitivity,[4]; [18],still reduced
same,spontaneous production of tear,[5],no significant effect
same,spontaneous production of tear,[6],no significant effect
same,welfare,[7]; ocular topical administration,no severe affection of welfare
same,body weight decrease with regard to the weight before beginning the treatment,"[7]; phase of repeated CBD administration, DBA/2J and CD-1 mice, larger in CD-1",lower than 10%
same,effect on IOP,[8]; delivered in mineral oil,IOP-lowering effect
same,effect on IOP,[8]; delivered in sesame oil,absent
same,effect on IOP,[9],increases IOP
same,effect on IOP,[10],decreases IOP

# — EP4434515A1, “CBD FOR OCULAR USE” (Laboratoire Laredo S.L., priority 2023, dated 2024)
